Patent US9458194B2, “Compounds useful in the treatment and/or care of the skin and their cosmetic or pharmaceutical compositions” (Lubrizol Advanced Materials, Inc., priority 2013, dated 2016)

Tests used:
Assay type in all cases: cell-based
[1] = tested on: human LOXL1 gene promoter; experiment: Luminescence assay of human LOXL1 gene promoter activation (Renilla luciferase); details: positive control, 10 ng/mL
Method: (§1) The effect of the compounds of the invention on the activity of the fibulin-5 and LOXL1 promoters was studied and compared to the levels of basal expression of the untreated cells (negative control) and with the effect of Interleukin-1β (IL-1β) in the same conditions.
(§2) Cells from an epithelial cell line doubly transfected with fibulin-5 and LOXL1 human promoters in which the luciferase gene is under the regulatory control of said promoters (4×10^4 cells/well) were seeded in a white plate and in a 96-well transparent plate, both treated with polylysine, and were incubated in Dulbecco's Modified Eagle Medium (DMEM-Glutamax™), with 10% of FBS, 1% Penicillin-Streptomycin (P/S), 1 mg/ml of Geneticin® (G418) and […] at 37° C. in at atmosphere with 5% CO2. After the incubation, the cells were incubated for 6 hours at 37° C. in at atmosphere with 5% CO2 with DMEM without serum. Then, this medium was removed and the cells were treated with different compounds at 0.1 mg/ml, 0.5 mg/ml, 1 mg/ml or 2 mg/mL in DMEM/1% FBS for 16-24 hours. As a positive control to activate the fibulin-5 and LOXL1 promoters 10 ng/ml of IL-1β were used and as a negative control untreated cells were used, just with DMEM/1% FBS. The incubations and treatments were carried out in parallel in the white plate and the transparent plate and in triplicate for each condition. After the treatment, the relative light units per second were determined (RLU/s) in the white plate by means of consecutive quantification of the activities of Firefly luciferase (fibulin-5 promoter) and Renilla luciferase (LOXL1 promoter), and the number of total cells/well in the transparent plate by means of staining with Crystal Violet (CV). To determine the Firefly and Renilla luciferase activities the Dual-Glo Luciferase Assay System kit by Promega was used. The cells were briefly lysed and the Firefly luciferase substrate was added. After incubating for 10 min at 25° C., the RLU/s were quantified by luminescence reader (Lumistar-BMG). Then the Firefly signal was extinguished and the Renilla luciferase substrate was added. After incubating for 5 min at 25° C., the RLU/s were quantified by the same luminescence reader. With regard to the determination of the total number of cells by Crystal Violet, the CV dyes the DNA of the cells and the quantity of dye taken by the cells can be measured in an absorbency reader at 630 nm (Multiskan Ascent). The color obtained is directly proportional to the total number of cells per well. The cells were briefly incubated with 0.05% CV plus 4% Formalin for 20 minutes and after several washes with Milli-Q water, the cells were left to dry for 1-2 hours and then 0.1 M of HCl was added for its immediate reading. The RLU/s of the luciferases corresponding to each promoter were normalized by the average of the total number of cells per condition. Three independent assays with 3 measurements per assay were carried out for Ac-L-Asp-L-Val-L-Lys-L-Tyr-OH at 0.1 mg/mL and 1 mg/mL. 1 assay with 3 measurements was carried out for the other compounds and concentrations.
(§3) The increase in the activity of the promoters with regard to the levels of expression of the negative control was determined.

fibulin-5 = experiment: Immunofluorescence of fibulin-5 protein expression in human dermal fibroblasts; details: for Increase in the expression of the protein fibulin-5 with regard to the negative control: 48 hours, HDFa; for Average increase of the expression of the proteins fibulin-5 and LOXL1: positive control, average for both proteins
Method: (§4) In this experiment the number of times that the expression of the proteins fibulin-5 and LOXL1 in human dermal fibroblasts is increased with regard to the basal levels in untreated cells (negative control) when treating the cells with 0.5 mg/ml of the product Ac-L-Asp-L-Val-L-Lys-L-Tyr-OH and it is compared with the effect of Interleukin-1β (IL-1β) at 20 ng/ml and TGF-β at 5 ng/ml (positive controls), which increase an average of 1.5 times and 2 times, respectively, the expression of these proteins, in the same conditions.
(§5) Adult human dermal fibroblasts were seeded (HDFa) (2.5×10^3 cells/well) in a 96-well transparent plate, treated with polylysine, and were incubated in complete medium 106 for 72 hours at 37° C. in an atmosphere with 5% CO2. After the incubation, the cells were treated with the different compounds in complete medium 106 for 48 hours at 37° C. in an atmosphere with 5% CO2. As positive controls of increase of the expression of the proteins fibulin-5 and LOXL1, 5 ng/ml of TGF-β and 20 ng/ml of IL-1β were used and as a negative control untreated cells were used, just with complete medium 106. The incubations and the treatments were carried out in quadruplicate for each condition. After the treatment, the levels of expression of both proteins were quantified relatively by using specific fluorescent antibodies, photographic recording by microscopy and subsequent quantification of the fluorescent signal using image processing software, the number of total cells by fluorescent staining of the nuclei (DAPI) and subsequent quantification in the same images. For the determination of the expression of the proteins fibulin-5 and LOXL1 the cells were washed with PBS 48 hours after the treatments and were fixed with paraformaldehyde. Next, duplicates of each treatment were used to mark separately the fibulin-5 and LOXL1 proteins. For each of the proteins a specific primary monoclonal antibody was used (Abcam). After the primary incubation, the cells were washed with PBS and the secondary marking was carried out with specific fluorescent polyclonal antibodies for each primary antibody. For fibulin-5 an Alexa Fluor® 594 (red) secondary antibody was used and for LOXL1 an Alexa Fluor® 488 (green) secondary antibody was used. 16 hours later all the samples were stained with DAPI (4′,6-Diamidino-2-Phenylindole), fluorescent marker for the staining of nuclei, and the photographic recording was carried out by fluorescence microscopy in a Leica microscope. 2-4 images were taken per condition and per protein and the fluorescent signals were quantified (IOD) corresponding to each protein and the nuclei by means of image analysis software. The fibulin-5 and LOXL1 signals were normalized according to the number of total nuclei for each image. 3 independent assays were carried out.

LOXL1 = experiment: Immunofluorescence of LOXL1 protein expression in human dermal fibroblasts; details: 48 hours, HDFa
Method: as §4
as §5, with “For the determination of the expression of the proteins fibulin-5 and LOXL1 the cells were washed with PBS 48 hours after the treatments and were fixed with paraformaldehyde. Next, duplicates of each treatment were used to mark separately the fibulin-5 and LOXL1 proteins. For each of the proteins a specific primary monoclonal antibody was used (Abcam). After the primary incubation, the cells were washed with PBS and the secondary marking was carried out with specific fluorescent polyclonal antibodies for each primary antibody. For fibulin-5 an Alexa Fluor® 594 (red) secondary antibody was used and for LOXL1 an Alexa Fluor® 488 (green) secondary antibody was used.” left out, “The fibulin-5 and LOXL1 signals were normalized according to the number of total nuclei for each image. 3 independent assays were carried out.” left out

[2] = tested on: human fibulin-5 gene promoter; experiment: Luminescence assay of human fibulin-5 gene promoter activation (Firefly luciferase); details: positive control, 10 ng/mL
Method: as §1, §2, §3

elastin = experiment: Elastin synthesis in human dermal fibroblasts (Fastin Elastin Assay); details: positive control, 10 ng/mL, 48 hours, vs negative control
Method: Stimulation of elastin synthesis induced by Ac-L-Asp-L-Val-L-Lys-L-Tyr-OH was evaluated by means of a quantitative method of staining, Fastin Elastin Assay (Tebu-Bio). Human dermal fibroblasts were trypsinized and seeded at a density of 7×10^4 cells/well in 6-well plates. After 72 hours of incubation at 37° C., 5% CO2, with a humidified atmosphere, a new medium was added with 0.01 μg/mL Ac-L-Asp-L-Val-L-Lys-L-Tyr-OH. Untreated cells were used as negative controls and cells treated with TGF-1β (Peprotech) were used as positive controls. The cells were incubated for an additional 48 hours at 37° C., 5% CO2, with humidified atmosphere. Subsequently, the elastin was solubilized and extracted, for which the cells were washed twice with PBS (Sigma) and a solution was added to uncouple the cells (Cell Dissociation Solution, Sigma). The suspension of cells was transferred to centrifuge tubes, 1 M Oxalic Acid was added provided by the kit and they were incubated at 100° C. for 1 hour. Once the elastin became soluble, a calibration curve was prepared with the elastin provided with the kit. From that point, the samples and dilutions of the calibration curve were processed following the kit instructions to isolate and stain the elastin. Lastly, the dye was extracted and the absorbency reading was carried out at a wave length of 540 nm in a TECAN GENios spectrophotometric reader.

With “IL-1β: Interleukin-1β, positive control to activate the fibulin-5 and LOXL1 promoters and increase expression of the proteins [reference compound]” as the substance, how does the “Increase in the activity of the human promoter of the LOXL1 gene with regard to the negative control” value [1] read?
The value was 156.26%.

What about the “Increase in the expression of the protein fibulin-5 with regard to the negative control” value (fibulin-5; 20 ng/mL) of the same substance?
Its value is 42.07%.

What about the “Average increase of the expression of the proteins fibulin-5 and LOXL1” value (fibulin-5; 20 ng/ml) of the same substance?
Its value is 1.5 times.

What about the “Increase in the expression of the protein LOXL1 with regard to the negative control” value (LOXL1; 20 ng/mL) of the same substance?
The value was 87.50%.

What about the “Increase in the activity of the human promoter of the FIBULIN 5 gene with regard to the negative control” value [2] of the same substance?
The value was 80.40%.

Which “INCREASE IN ELASTIN SYNTHESIS” value (elastin) does the source give for “TGF-1β: TGF-1β (Peprotech), positive control in the elastin synthesis assay [reference compound]” here?
The value was 35.6%.

TGF-β was tested. Which “Increase in the expression of the protein fibulin-5 with regard to the negative control” value (fibulin-5; 5 ng/mL) did it give?
The value was 147.72%.

What about the “Average increase of the expression of the proteins fibulin-5 and LOXL1” value (fibulin-5; 5 ng/ml) of the same substance?
The value was 2 times.

And the “Increase in the expression of the protein LOXL1 with regard to the negative control” value (LOXL1; 5 ng/mL)?
Its value is 45.93%.
